Measurements reported in patent US9014457B2, “Quantifying cell death” (UCL Business PLC, priority 2009, dated 2015).
“Also recorded” adds a separate entry of the source. Like-named read-outs stand apart in the source and are kept apart here.

Key:
[1] = tested on: retina autofluorescence (NADH, FAD); conditions: intravitreal administration
Text: Detection of FCCP-induced retinal metabolic changes in vivo in a mouse eye.

[2] = tested on: RGC apoptosis; test: DARC in vivo imaging of OHT rat eyes, topical CoQ10; conditions: topical on Day 0, 1, 7, 21 & 42; at 3 & 6 weeks after elevated IOP; vs control
Text: FIG. 14B DARC in vivo imaging of OHT rat eyes at 3 weeks after elevated intraocular pressure (IOP) showing increased RGC apoptosis (white spots) in Control (A) compared to CoQ10-treated (B) eyes.

[3] = tested on: Cyclophilin D; test: Histological cross sections of retina stained for Cyclophilin D, OHT rat eyes; assay type: in vivo
[4] = in vivo; cited from earlier work
[5] = tested on: RGC; conditions: topical application; cited from earlier work
[6] = human, in vivo; cited from earlier work
[7] = in comparison to 360° laser trabeculoplasty; cited from earlier work
[8] = tested on: RGC; conditions: rat, in vivo; cited from earlier work
[9] = tested on: calcium signal in the retina; test: Calcium transients in calcium transgenic mouse eye (FCIPs) in vivo; conditions: intravitreal; vs baseline
Text: FIG. 13C Calcium transgenic mice with genetically-encoded fluorescent Ca2+ indicator proteins (FCIPs) were imaged in vivo. Aβ25-35-induced calcium transients in a calcium transgenic mouse eye. […] Analysis of the fluorescent signal after Aβ injection at t=o, is shown graphically with fluorescence seen in the areas Identified by coloured boxes in inset (D,E).

[10] = tested on: calcium signals in the retina; test: Calcium signals in vivo in a mouse eye, Fura red; conditions: ten minutes after 5 nmol; vs pre-treatment, p<0.001
Text: FIG. 13B. The effects of Aβ25-35 on calcium signals in vivo in a mouse eye. […] Ten minutes after Aβ25-35 (5 nmol) application (as shown D) however, a stronger fluorescent signal was detected in the RGCL (C).

[11] = tested on: RGC; test: Abeta (Aβ25-35)-induced RGC death model, in vivo cSLO imaging with annexin V and PI; set-up: species or system mouse
Procedure: For the analysis of Abeta, freshly made Aβ25-35 (Sigma-Aldrich, 3.40 nmol) (Dahlgren et al., 2002) was intravitreally injected into C57 mice (n=10) (Maass et al., 2007). Animals were imaged at 72 hours. For AD 3× Tg-AD studies, 4 eyes (all female, 14 months) with 2 eyes from aged control mice (PS1KI; female, 18 months) were assessed. 3× Tg-AD and control PS1KI mice were obtained from a colony (maintained at CeSI) established after a generous gift of Frank Laferla. Intravitreal phorbol myristate acetate (1 μl of 10 μg/ml) was administered to left eyes of 3× Tg-AD animals, at the same time as annexin V and PI.
(§1) Using a method the inventors have recently described, rats were given 2.5 μg of intravitreal Alexa Fluor 488 labelled annexin V in 5 μl PBS for identification of RGC apoptosis, 2 hours before in vivo imaging (Cordeiro et al., 2004). For mice, the inventors used 1 μl of a 0.25 mg/ml solution of IR-labelled annexin (Annexin-IR) in intravitreal injections as previously described (Schmitz-Valckenberg et al., 2008).
In order to identify necrotic RGCs in rats (2 μl) and mice (1 μl), propidium iodide (PI; 0.4 mg/ml, 1% solution, Sigma-Aldrich, Dorset UK) was administered intravitreally at the same time as annexin, 2 hours before in vivo imaging. PI intercalates into nucleic acids, binding to double-stranded DNA, but only crosses the plasma membrane of non-viable cells. Cells that have lost membrane integrity are thus identified by fluorescent red PI staining throughout the nuclei.
In mice, the inventors used instrumentation as previously described (Maass et al., 2007; Schmitz-Valckenberg et al., 2008), with a modified cSLO (Heidelberg Retina Angiograph 2, Heidelberg Engineering, Dossenheim, Germany) and a wide-field lens (55°). The fluorescein angiogram (488 nm argon laser) and indocyanine green (IR 790 nm diode laser) settings were used to detect PI and IR-labelled annexin respectively. The same software was used to analyse video sequenced images as described before with whole retinal monochrome images from each eye recorded and colourised. Dual-color images were produced by combining each of the grayscale images from the cSLO into the red (PI), and green (IR annexin) of an RGB color image.
The left eye of each animal was treated with intravitreal 0.40 nmol MK801 at the same time as Abeta. Wide-angle retinal images were recorded 2 hours following intravitreal annexin (green) and PI (red), as previously described (Guo at al., 2006).
To assess the relative levels of early apoptosis, late apoptosis and necrosis the inventors studied the co-localization of PI and annexin V using ImageJ software with the Intensity Correlation Analysis plugin (Li et al., 2004). Colour and raw scatter plots of annexin and PI fluorescence intensity were constructed from plugin-generated data for each animal. Corresponding scatter plots (blue) from the eyes shown in FIG. 8a-b are illustrated in FIG. 8c-d. The data were analysed in a similar manner to data derived by in vitro FACS analysis, with four quadrants (midlines shaded in colour overlay as red, green, blue and yellow) enabling separation of the different phases of cell death as annexin V positive (early apoptosis, green), annexin V and PI double positive (late apoptosis, yellow) and PI positive (necrosis, red). Thresholds were set automatically by the plugin for each analysis of each eye. The inventors then used fluorescence intensity counts from the raw scatter plots to quantify each phase of cell death.
To further assess the analytical power of the technique, the inventors next investigated whether the level of oxidative stress in Abeta-treated eyes influenced the phase of cell death and whether this was possible to visualize in vivo. […] FIG. 8f-g are taken from the right untreated (F) and left PMA-treated (G) eye of an animal treated 72 hours previously with 3.40 nmol Aβ25-35. […]

[12] = tested on: RGC; conditions: previously established; cited from earlier work
[13] = tested on: ROS production in the retina; test: ROS production in mouse retina in vivo visualized with DHE; conditions: intravitreal; vs vehicle/control eye
Procedure: FIG. 12B. The effects of rotenone on ROS production in mouse retina in vivo. ROS production visualized with DHE (dihydroethidium). DHE is a non-fluorescent agent, reacting with ROS intracellularly to produce a fluorescent oxidative product which can be detected. Rotenone (50 uM, 1 ul) was intravitreally injected into the one eye (C57) and the same volume of vehicle (saline) injected into the contralateral eye. DHE (1 ul) was then injected intravitreally and both eyes imaged to detect ROS production using a SLO machine.
FIG. 12C. The effects of PMA in producing ROS in mouse retina in vivo. PMA (50 ug/ml, 1 ul) was injected intravitreally into the one eye and saline (1 ul) into the contralateral eye. DHE (1 ul) was simultaneously injected for detecting ROS production.
FIG. 12D. The effects of Aβ25-35 on ROS production in vivo. DHE was intravitreally injected into the both eyes of a mouse to detect ROS production.

[14] = tested on: mitochondrial membrane potential in the retina; test: Mitochondrial membrane potential (MMP) in mouse eye in vivo, Rho123 fluorescence
Procedure: FIG. 11B. Early investigations show the effects of intravitreal rotenone on mitochondrial membrane potential (MMP) in a mouse eye in vivo.
FIG. 11C. Using the same analysis, we looked at the effects of Aβ25-35 on MMP in vivo in a mouse eye. Rho123 is a fluorescent probe, used to detect the changes in mitochondrial fluorescent density. […] The dashed line in C represents baseline fluorescence before Rho123 was injected

[15] = tested on: control cells; conditions: cited from earlier work
[16] = tested on: cortical astrocytes; conditions: 1 mM glutamate or 10 mM methyl-succinate; cited from earlier work
[17] = tested on: RGC; conditions: previously established; cited from earlier work; remark: listed apart in the source
[18] = tested on: RGC; test: Staurosporine (SSP)-induced RGC apoptosis model, time-lapse in vivo imaging; set-up: species or system rat
Procedure: For analysis of staurosporine-induced RGC apoptosis, 14 DA rats received 0.5 μg of intravitreal staurosporine (SSP) in 5 μl phosphate-buffered saline (PBS); both Sigma Aldrich UK, to induce RGC apoptosis as previously described (Cordeiro et al., 2004). Animals were imaged immediately for up to 6 hours, after which they were killed for histology.
as §1, with “2008). […]” for “2008).”
All rats had in vivo retinal imaging performed at regular and set intervals after experimental treatment, using a prototype Zeiss confocal scanning laser ophthalmoscope (cSLO), as previously described (Cordeiro et al., 2004; Maass et al., 2007). […] Colour and raw scatter plots of annexin and PI fluorescence intensity were constructed, so data could be analysed in a similar manner to data derived by in vitro FACS analysis. […] Fluorescence intensity counts derived from raw scatter plots were used to quantify each phase of cell death. […]

[19] = tested on: cortical neurons; conditions: cited from earlier work

For `N#CC(C#N)=NNc1ccc(OC(F)(F)F)cc1` [FCCP, Carbonylcyanide-p-trifluoromethoxy-phenylhydrazone], the “real time autofluorescence in the retina” value [1] was “increase”.
In the case of `COC1=C(OC)C(=O)C(C/C=C(\C)CC/C=C(\C)CC/C=C(\C)CC/C=C(\C)CC/C=C(\C)CC/C=C(\C)CC/C=C(\C)CC/C=C(\C)CC/C=C(\C)CCC=C(C)C)=C(C)C1=O` [CoQ10, Ubiquinone], the RGC apoptosis [2] was “significantly reduced”, the “Cyclophilin D (CyD) in retina, histological grading” value ([3]; 3 weeks after induction of OHT) was “increased; also recorded: significant increase” and the “Cyclophilin D (CyD) in retina, histological grading” value ([3]; 12 weeks after elevated IOP) was “not at 12 weeks”. The neuroprotection [4] was “highly effective”.
In the case of NGF: nerve growth factor, the RGC apoptosis [5] is given as “reducing” and the “functional effect in patients” value [6] is given as “neuroprotective effects functionally”.
In the case of `Brc1c(NC2=NCCN2)ccc2nccnc12` [Brimonidine], the visual field deterioration [7] is listed as “reduced” and the RGC survival [8] is listed as “positive effect”.
With “Aβ25-35: amyloid beta peptide fragment 25-35 (Sigma-Aldrich), induces RGC apoptosis (GSNKGAIIGLM; Amyloid-beta protein 42; UniProt P05067 696-706, looked up, fragment)” the “fluorescent calcium signal in the retina” value [9] was “immediate fluorescent calcium signal”, the “calcium signals in the retina (Fura red)” value [10] was “significant increase” and the “cell death profile (phases) at time of peak apoptosis” value ([11]; 72 h, co-localization scatter plot analysis, listed as Abeta) was “significantly more cells in the late phase of apoptosis; also recorded: significantly more RGCs in the phases of late apoptosis”. For the same compound, the RGC death ([11]; 72 hours after intravitreal administration of 3.40 nmol) was “Significant RGC death”, the “time point of maximal apoptosis” value [12] was 72 h and the “ROS production in the retina (DHE fluorescence)” value [13] was “significant increase of ROS production”. For the same compound, the “MMP in the retina (Rho123)” value ([14]; vs baseline, few minutes delay, p<0.01) was “significant loss”.
For `C=C(C)[C@H]1Cc2c(ccc3c2O[C@@H]2COc4cc(OC)c(OC)cc4[C@@H]2C3=O)O1` [Rotenone], the “ROS production (MitoSox)” value [15] is given as “significant increase”, the “ROS production in the retina (DHE fluorescence)” value [13] is given as “stronger fluorescent signals of ROS production” and the “mitochondrial membrane depolarization (Rho123 signal)” value ([14]; intravitreal 20 uM, 1 ul, vs vehicle control) is given as “significant mitochondrial membrane depolarization”.
In the case of `N[C@@H](CCC(=O)O)C(=O)O` [glutamate], the “slow progressive mitochondrial depolarization in response to Aβ 25-35” value [16] is listed as “abolished almost completely”.
In the case of `CN[C@@H]1C[C@H]2O[C@@](C)([C@@H]1OC)n1c3ccccc3c3c4c(c5c6ccccc6n2c5c31)C(=O)NC4` [SSP, staurosporine], the “time point of maximal apoptosis” value [17] is listed as 2 h, the “cell death profile (phases) at time of peak apoptosis” value ([18]; 2 h, co-localization scatter plot analysis) is listed as “significantly more cells in the late phase of apoptosis; also recorded: significantly more RGCs in the phases of late apoptosis” and the “PI staining over time” value ([18]; SSP-treated rat eye, time-lapse video over 5 hours) is listed as “clear increase”.
In the case of `C[C@]12CC[C@@H]3c4ccc(O)cc4CC[C@H]3[C@@H]1CC[C@@H]2O` [17β-estradiol], the “neuronal integrity and function” value [19] is listed as “increased”.
